B1: SEQ ID NO 105 (peptide)
peptide: XXQTXQCXXXENN
modifications: Ac-[(D)Arg]-cyclo[[Abu]-QT-[Trp(5-F)]-QC]-[Phe[4-(2-aminoethoxy)]-[2-Nal]-[α-MeLeu]-ENN-NH2
B2: SEQ ID NO 106 (peptide)
peptide: XQTXQCXXXENN
modifications: Ac-cyclo[[Abu]-QT-[Trp(5-F)]-QC]-[Phe[4-(2-aminoethoxy)]-[2-Nal]-[α-MeLeu]-ENN-NH2
B3: SEQ ID NO 97 (peptide)
peptide: XXQTWXCXXXENN
modifications: Ac-[(D)Arg]-cyclo[[Abu]-QTW-[β-homoGln]-C]-[Phe[4-(2-aminoethoxy)]-[2-Nal]-[4-amino-4-carboxy-tetrahydropyran]-ENN-NH2
B4: SEQ ID NO 107 (peptide)
peptide: XXQTWQCXXXENN
modifications: Ac-[(D)Arg]-cyclo[[Abu]-QTWQC]-[Phe[4-(2-aminoethoxy)]-[2-Nal]-[α-MeLeu]-ENN-NH2
B5: SEQ ID NO 71 (peptide)
peptide: XXQTWQCXXXENN
modifications: Alexa488-[PEG4]-[(D)Arg]-cyclo[[Abu]-QTWQC]-[Phe[4-(2-aminoethoxy)]-[2-Nal]-[4-amino-4-carboxy-tetrahydropyran]-ENN-NH2

Positions of bridges follow the written chain, without caps; N, C: chain ends. Non-standard residues stand in square brackets, D forms with d. 2Nal = N[C@@H](Cc1ccc2ccccc2c1)C(=O)O; AEF = NCCOc1ccc(C[C@H](N)C(=O)O)cc1; αMeL = CC(C)C[C@](C)(N)C(=O)O; Pen = CC(C)(S)[C@H](N)C(=O)O; Thp = NC1(C(=O)O)CCOCC1; Abu = CC[C@H](N)C(=O)O

The target in one experiment is T1, interleukin-23 receptor (IL-23R) (human, UniProt Q5VWK5 24-629).
T1 sequence (looked up): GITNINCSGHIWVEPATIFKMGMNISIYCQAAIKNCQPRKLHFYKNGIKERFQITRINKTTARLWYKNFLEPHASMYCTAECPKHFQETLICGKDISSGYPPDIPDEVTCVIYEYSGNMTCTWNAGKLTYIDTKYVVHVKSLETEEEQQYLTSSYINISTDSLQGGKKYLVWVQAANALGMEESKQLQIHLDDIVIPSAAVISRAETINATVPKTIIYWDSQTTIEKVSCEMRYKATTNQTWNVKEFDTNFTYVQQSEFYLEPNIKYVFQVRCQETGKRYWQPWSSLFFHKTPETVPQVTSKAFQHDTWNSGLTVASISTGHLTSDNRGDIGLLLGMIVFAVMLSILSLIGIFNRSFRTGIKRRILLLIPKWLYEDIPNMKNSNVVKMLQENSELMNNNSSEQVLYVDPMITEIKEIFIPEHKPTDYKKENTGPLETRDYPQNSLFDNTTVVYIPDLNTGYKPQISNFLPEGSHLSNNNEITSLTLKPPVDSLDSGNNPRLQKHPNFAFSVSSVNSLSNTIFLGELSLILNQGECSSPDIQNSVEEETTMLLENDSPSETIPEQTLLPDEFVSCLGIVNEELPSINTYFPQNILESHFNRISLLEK
Briefly: cell-based or functional assay.
Conditions: not given
For B1, the “IC50, pStat3 HTRF (nM)” value was below 1 nM.

In the case of B2, the “IC50, pStat3 HTRF (nM)” value was below 1 nM.

Turning to B3, the “IC50, pStat3 HTRF (nM)” value was above 100 nM.

For the molecule B4, the “IC50, pStat3 HTRF (nM)” value was below 1 nM.

Regarding B5, the “IC50, pStat3 HTRF (nM)” value is below 1 nM.

The subject of the next experiment is IL-23R-expressing DB cells stimulated with IL-23 (pSTAT3 levels). The experiment is described as follows: DB cells IL23R pSTAT3 cell assay (Cisbio HTRF pSTAT3). The following applies: Table E2, thioether peptides, IL-23 0.5 nM, 30 minutes at 37° C. Type of experiment: cell-based, human. The text has this: Human ELISA indicates the IL23-IL23R competitive binding assay described below, Rat ELISA indicates the rat IL-23R competitive binding ELISA assay described below, and pStat3HTRF indicates the DB cells IL-23R pSTAT3 cell assay described below. The peptides depicted in Table E1 are cyclized via a disulfide bridge formed between two Pen residues in these peptides. The peptides depicted in Table E2 are cyclized via a thioether bond between the indicated amino acid residues. Table E2 provides an illustrative structure depicting thioether cyclization, which is indicated in the table by the term “cyclo,” with the cyclic region bracketed immediately following the term “cyclo.” For certain peptides, the residue Abu is present where indicated, whereas in other embodiments, e.g., those related to the non-cyclized form, the Abu may be referred to as a hSer(Cl) or homoSer residue.
DB Cells IL23R pSTAT3 Cell Assay
IL-23 plays a central role in supporting and maintaining Th17 differentiation in vivo. […] This cell assay examines the levels of pSTAT3 in IL-23R-expressing DB cells when stimulated with IL-23 in the presence of test compounds.
In general terms: Time-resolved FRET reads energy transfer from a long-lived donor to a nearby acceptor.
Regarding “78 (Ac-[dR][Abu]QTWEC[AEF][2Nal][Thp]END-NH2; thioether 2-7) [compound 78]”, the IC50 lay in the range of 1 to 10 nM.

“79 (Ac-[dR][Abu]ETWQC[AEF][2Nal][Thp]END-NH2; thioether 2-7) [compound 79]”: the IC50 fell in the range of 1 to 10 nM.

With “80 (Ac-[dR][Abu]QTWEC[AEF][2Nal][Thp]EDN-NH2; thioether 2-7) [compound 80]”, the IC50 was 10 to 100 nM.

“81 (Ac-[dR][Abu]ETWQC[AEF][2Nal][Thp]EDN-NH2; thioether 2-7) [compound 81]” displayed an IC50 of 10 to 100 nM.

“82 (Ac-[dR][Abu]ETWEC[AEF][2Nal][Thp]ENN-NH2; thioether 2-7) [compound 82]” displayed an IC50 of 1 to 10 nM.

“84 (XXQTWQCXXXEND; MOD_RES (1)..(1) D-form arginine; MOD_RES (2)..(2) Abu; (2)..(7) residues cyclosized; MOD_RES (8)..(8) 4-(2-aminoethoxy)-L-phenylalanine; MOD_RES (9)..(9) L-2-Napthylalanine; MOD_RES (10)..(10) 4-amino-4-carboxy-tetrahydropyran) [compound 84]” showed an IC50 of 10 to 100 nM.

For “85 (XXQTWQCXXXEDN; MOD_RES (1)..(1) D-form arginine; MOD_RES (2)..(2) Abu; (2)..(7) residues cyclosized; MOD_RES (8)..(8) 4-(2-aminoethoxy)-L-phenylalanine; MOD_RES (9)..(9) L-2-Napthylalanine; MOD_RES (10)..(10) 4-amino-4-carboxy-tetrahydropyran) [compound 85]”, the IC50 lay within 10 to 100 nM.

Take “86 (XXQTWECXXXENN; MOD_RES (1)..(1) D-form arginine; MOD_RES (2)..(2) Abu; (2)..(7) residues cyclosized; MOD_RES (8)..(8) 4-(2-aminoethoxy)-L-phenylalanine; MOD_RES (9)..(9) L-2-Napthylalanine; MOD_RES (10)..(10) 4-amino-4-carboxy-tetrahydropyran) [compound 86]”: the IC50 was 1 to 10 nM.

As to “99 (XXQTWFCXXXENN; MOD_RES (1)..(1) D-form arginine; MOD_RES (2)..(2) Abu; (2)..(7) residues cyclosized; MOD_RES (8)..(8) 4-(2-aminoethoxy)-L-phenylalanine; MOD_RES (9)..(9) L-2-Napthylalanine; MOD_RES (10)..(10) 4-amino-4-carboxy-tetrahydropyran) [compound 99]”, the IC50 was 10 to 100 nM.

For the molecule “100 (XXQTWWCXXXENN; MOD_RES (1)..(1) D-form arginine; MOD_RES (2)..(2) Abu; (2)..(7) residues cyclosized; MOD_RES (8)..(8) 4-(2-aminoethoxy)-L-phenylalanine; MOD_RES (9)..(9) L-2-Napthylalanine; MOD_RES (10)..(10) 4-amino-4-carboxy-tetrahydropyran) [compound 100]”, the half-inhibitory concentration (IC50) fell in the range of 1 to 10 nM.

The molecule “102 (XXQTWTCXXXENN; MOD_RES (1)..(1) D-form arginine; MOD_RES (2)..(2) Abu; (2)..(7) residues cyclosized; MOD_RES (8)..(8) 4-(2-aminoethoxy)-L-phenylalanine; MOD_RES (9)..(9) L-2-Napthylalanine; MOD_RES (10)..(10) 4-amino-4-carboxy-tetrahydropyran) [compound 102]” showed an IC50 of 10 to 100 nM.

Regarding “103 (XXQTWVCXXXENN; MOD_RES (1)..(1) D-form arginine; MOD_RES (2)..(2) Abu; (2)..(7) residues cyclosized; MOD_RES (8)..(8) 4-(2-aminoethoxy)-L-phenylalanine; MOD_RES (9)..(9) L-2-Napthylalanine; MOD_RES (10)..(10) 4-amino-4-carboxy-tetrahydropyran) [compound 103]”, the IC50 lay in the range of 10 to 100 nM.

Staying with this experiment, now noted: Table L3 (E3), additional peptide inhibitors, IL-23 0.5 nM, 30 minutes at 37° C.
Molecule “154 (XXQTWKCXXXENN; MOD_RES (1)..(1) D-form arginine; MOD_RES (2)..(2) Abu; (2)..(7) residues cyclosized; MOD_RES (6)..(6) PEG12 conjugation; MOD_RES (8)..(8) 4-(2-aminoethoxy)-L-phenylalanine; MOD_RES (9)..(9) L-2-Napthylalanine; MOD_RES (10)..(10) 4-amino-4-carboxy-tetrahydropyran) [compound 154]” had a half-inhibitory concentration (IC50) of 1 to 10 nM.

For “156 (XXQTWQCXXXKNN; MOD_RES (1)..(1) D-form arginine; MOD_RES (2)..(2) Abu; (2)..(7) residues cyclosized; MOD_RES (8)..(8) 4-(2-aminoethoxy)-L-phenylalanine; MOD_RES (9)..(9) L-2-Napthylalanine; MOD_RES (10)..(10) 4-amino-4-carboxy-tetrahydropyran; MOD_RES (11)..(11) PEG12 conjugation) [compound 156]”, the IC50 lay within 1 to 10 nM.

On to “158 (XNTWQXXXXKNND; MOD_RES (1)..(1) L-Penicillamine; MOD_RES (6)..(6) L-Penicillamine; MOD_RES (7)..(7) 4-(2-aminoethoxy)-L-phenylalanine; MOD_RES (8)..(8) L-2-Napthylalanine; MOD_RES (9)..(9) alpha-methyl-L-Leucine; MOD_RES (10)..(10) …ON) [compound 158]”, for which the IC50 was 1 to 10 nM.

Molecule “160 (XNTWQXXXXKNNW; MOD_RES (1)..(1) L-Penicillamine; MOD_RES (6)..(6) L-Penicillamine; MOD_RES (7)..(7) 4-(2-aminoethoxy)-L-phenylalanine; MOD_RES (8)..(8) L-2-Napthylalanine; MOD_RES (9)..(9) alpha-methyl-L-Leucine; MOD_RES (10)..(10) …ON) [compound 160]” showed an IC50 of 1 to 10 nM.

As for “162 (XNTWQXXXXKNNL; MOD_RES (1)..(1) L-Penicillamine; MOD_RES (6)..(6) L-Penicillamine; MOD_RES (7)..(7) 4-(2-aminoethoxy)-L-phenylalanine; MOD_RES (8)..(8) L-2-Napthylalanine; MOD_RES (9)..(9) alpha-methyl-L-Leucine; MOD_RES (10)..(10) …ON) [compound 162]”, the IC50 was 1 to 10 nM.

Consider “163 (XNTWQXXXXKNNG; MOD_RES (1)..(1) L-Penicillamine; MOD_RES (6)..(6) L-Penicillamine; MOD_RES (7)..(7) 4-(2-aminoethoxy)-L-phenylalanine; MOD_RES (8)..(8) L-2-Napthylalanine; MOD_RES (9)..(9) alpha-methyl-L-Leucine; MOD_RES (10)..(10) …ON) [compound 163]”, for which the IC50 lay in the range of 1 to 10 nM.

Molecule “179 (Ac-K(Ac)[Pen]NTWQ[Pen][AEF][2Nal][αMeL]K(Ac)NN-NH2; disulfide 2-7 (inferred)) [compound 179]” had an IC50 of 1 to 10 nM.

As for “180 (Ac-K(Ac)[Pen]NTWQ[Pen][4‑Carbamoyl‑L‑phenylalanine][2Nal][αMeL]K(Ac)NN-NH2; disulfide 2-7 (inferred)) [compound 180]”, the IC50 was in the range of 1 to 10 nM.

The molecule “181 (XNTWQXXXXKNNK; MOD_RES (1)..(1) L-Penicillamine; MOD_RES (6)..(6) L-Penicillamine; MOD_RES (7)..(7) 4-(2-aminoethoxy)-L-phenylalanine; MOD_RES (8)..(8) L-2-Napthylalanine; MOD_RES (9)..(9) alpha-methyl-L-Leucine; MOD_RES (10)..(10) …ON; MOD_RES (13)..(13) …ON) [compound 181]” returned an IC50 of 1 to 10 nM.

In the case of “182 (Ac-[Pen]NTWQ[Pen][4‑Carbamoyl‑L‑phenylalanine][2Nal][αMeL]K(Ac)NNK(Ac)-NH2; disulfide 1-6 (inferred)) [compound 182]”, the IC50 lay within 1 to 10 nM.

What is called IC50 is the concentration needed to halve the response being measured. Higher therefore signals lower potency.

These data come from US20200207822A1, “PEPTIDE INHIBITORS OF INTERLEUKIN-23 RECEPTOR AND THEIR USE TO TREAT INFLAMMATORY DISEASES” (Protagonist Therapeutics, Inc., priority 2017, published 2020).
